# How the values were obtained:
# [1] = target: T1, beta1 (h) (Homo sapiens, UniProt P08588); assay: Radioligand binding beta1 (h) (agonist radioligand), [^3H](−)CGP 12177, HEK-293 cells
# T1 construct: expressed in transfected cells; host or cells: HEK-293 cells
# Protocol: (§1) Methods—Binding Assays: In vitro binding assays were performed using human recombinant receptors expressed in mammalian cell lines. Receptors were expressed in either HEK-293 or CHO cells depending on the target, and assay conditions (radioligand, concentration, nonspecific competitor, temperature, and incubation time) were optimized for each receptor. All assays were conducted in triplicate, and specific binding was quantified by scintillation counting as the detection method for each listed assay.
# (§2) Specific binding was expressed as a percentage of control-specific binding, and percent inhibition was calculated using the formula in Ex. 8 above. Half-maximal inhibitory concentrations (IC50) were determined by non-linear regression analysis of the inhibition curves using the Hill equation (see Ex. 8). Inhibition constants (Ki) were calculated using the Cheng-Prusoff equation (see Ex. 8). KD values used in these calculations had been previously established for each receptor under the assay conditions (see Table 6). Data analysis was performed using software developed at Cerep and validated against SigmaPlot 4.0 for Windows.
# [2] = test system: Ca^2+ channel (L, dihydropyridine site); assay: Radioligand binding Ca^2+ channel (L, dihydropyridine site) (antagonist radioligand), [^3H]nitrendipine, rat cerebral cortex
# [3] = target: T2, PDE3A(h) (Homo sapiens, UniProt Q14432); assay: Enzyme assay PDE3A(h), [3H]cAMP, scintillation counting; assay type: biochemical
# T2 construct: host or cells: Sf21 cells
# T2 sequence (Q14432 whole entry): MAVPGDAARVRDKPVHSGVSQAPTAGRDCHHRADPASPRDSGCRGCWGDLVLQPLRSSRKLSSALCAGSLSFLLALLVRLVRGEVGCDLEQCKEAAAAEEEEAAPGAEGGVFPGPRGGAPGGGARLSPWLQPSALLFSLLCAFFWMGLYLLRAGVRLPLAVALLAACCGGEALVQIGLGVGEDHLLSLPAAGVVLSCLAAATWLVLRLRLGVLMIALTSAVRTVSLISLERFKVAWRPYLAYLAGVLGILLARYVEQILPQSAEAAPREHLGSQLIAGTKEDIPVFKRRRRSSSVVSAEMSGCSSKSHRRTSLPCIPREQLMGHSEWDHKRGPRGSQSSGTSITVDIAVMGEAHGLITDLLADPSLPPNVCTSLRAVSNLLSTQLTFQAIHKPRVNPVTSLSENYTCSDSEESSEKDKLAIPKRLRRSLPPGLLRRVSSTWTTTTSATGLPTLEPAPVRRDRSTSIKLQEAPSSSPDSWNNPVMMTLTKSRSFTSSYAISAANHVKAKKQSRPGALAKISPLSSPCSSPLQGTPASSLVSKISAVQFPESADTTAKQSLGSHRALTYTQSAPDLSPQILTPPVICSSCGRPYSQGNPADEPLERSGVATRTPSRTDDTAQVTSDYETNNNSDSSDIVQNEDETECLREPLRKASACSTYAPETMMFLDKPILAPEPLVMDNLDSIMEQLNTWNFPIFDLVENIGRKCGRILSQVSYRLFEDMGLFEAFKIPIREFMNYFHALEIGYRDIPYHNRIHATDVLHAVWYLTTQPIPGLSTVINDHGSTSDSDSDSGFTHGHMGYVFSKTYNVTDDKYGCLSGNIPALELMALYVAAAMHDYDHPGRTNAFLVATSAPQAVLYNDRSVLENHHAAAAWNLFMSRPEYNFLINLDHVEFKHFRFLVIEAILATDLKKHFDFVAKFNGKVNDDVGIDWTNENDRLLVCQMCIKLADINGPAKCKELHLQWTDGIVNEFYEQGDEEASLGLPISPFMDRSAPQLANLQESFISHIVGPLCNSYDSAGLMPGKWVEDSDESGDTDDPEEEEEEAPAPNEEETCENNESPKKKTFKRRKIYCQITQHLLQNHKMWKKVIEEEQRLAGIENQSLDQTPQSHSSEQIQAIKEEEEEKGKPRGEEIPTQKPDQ
# Protocol: Methods—Enzyme and Uptake Assays: In vitro enzyme and uptake assays were conducted by Eurofins Discovery using human recombinant enzymes expressed in various mammalian and insect cell lines. Enzymatic activity was measured using appropriate substrates or tracers under conditions optimized for each target, as detailed in Table 7. Reactions were incubated at room temperature for a defined duration and terminated according to established protocols. The measured components (either enzymatic products or remaining substrate) were quantified using fluorimetry, photometry, scintillation counting, or LANCE technology, depending on the assay. Assay-specific parameters, including substrate identity, cell line source, incubation time, and detection method, are provided in Table 7.
# All measurements were performed in technical replicates to ensure reproducibility and data quality.
# Results were expressed both as a percentage of control-specific activity and as percent inhibition of control-specific activity. Percent activity was calculated as (measured specific activity/control specific activity)×100, and percent inhibition as 100−[(measured specific activity/control specific activity)×100], based on values obtained in the presence of test compounds. IC50 and EC50 values, along with Hill coefficients (nH), were determined by nonlinear regression analysis of inhibition or concentration-response curves generated from mean replicate values. Hill curve fitting was performed as previously described using software developed at Cerep and validated against SigmaPlot® 4.0 for Windows® (© 1997 by SPSS Inc.).
# [4] = target: T3, alpha1D (h) (Homo sapiens, UniProt P25100); assay: Radioligand binding alpha1D (h) (antagonist radioligand), [^3H]prazosin, CHO cells
# T3 construct: expressed in transfected cells; host or cells: CHO cells
# T3 sequence (P25100 1-572): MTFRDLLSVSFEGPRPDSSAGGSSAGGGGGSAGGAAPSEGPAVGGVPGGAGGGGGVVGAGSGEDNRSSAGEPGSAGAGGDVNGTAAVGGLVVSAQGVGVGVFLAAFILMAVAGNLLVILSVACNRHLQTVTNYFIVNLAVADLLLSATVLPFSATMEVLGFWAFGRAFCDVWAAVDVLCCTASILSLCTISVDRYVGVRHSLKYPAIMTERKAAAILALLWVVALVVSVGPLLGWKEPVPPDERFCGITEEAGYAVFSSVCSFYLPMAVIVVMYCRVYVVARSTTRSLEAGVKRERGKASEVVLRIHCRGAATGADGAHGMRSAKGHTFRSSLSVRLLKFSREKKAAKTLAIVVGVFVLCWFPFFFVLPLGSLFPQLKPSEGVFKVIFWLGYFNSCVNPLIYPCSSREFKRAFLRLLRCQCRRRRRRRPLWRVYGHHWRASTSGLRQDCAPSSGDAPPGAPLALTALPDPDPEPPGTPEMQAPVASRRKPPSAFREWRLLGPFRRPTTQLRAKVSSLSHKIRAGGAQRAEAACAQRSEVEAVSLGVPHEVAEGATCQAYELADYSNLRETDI
# Protocol: as §1, §2
# [5] = target: T4, M3 (h) (Homo sapiens, UniProt P20309); assay: Radioligand binding M3 (h) (antagonist radioligand), [^3H]4-DAMP, CHO cells
# T4 construct: expressed in transfected cells; host or cells: CHO cells
# T4 sequence (P20309 whole entry): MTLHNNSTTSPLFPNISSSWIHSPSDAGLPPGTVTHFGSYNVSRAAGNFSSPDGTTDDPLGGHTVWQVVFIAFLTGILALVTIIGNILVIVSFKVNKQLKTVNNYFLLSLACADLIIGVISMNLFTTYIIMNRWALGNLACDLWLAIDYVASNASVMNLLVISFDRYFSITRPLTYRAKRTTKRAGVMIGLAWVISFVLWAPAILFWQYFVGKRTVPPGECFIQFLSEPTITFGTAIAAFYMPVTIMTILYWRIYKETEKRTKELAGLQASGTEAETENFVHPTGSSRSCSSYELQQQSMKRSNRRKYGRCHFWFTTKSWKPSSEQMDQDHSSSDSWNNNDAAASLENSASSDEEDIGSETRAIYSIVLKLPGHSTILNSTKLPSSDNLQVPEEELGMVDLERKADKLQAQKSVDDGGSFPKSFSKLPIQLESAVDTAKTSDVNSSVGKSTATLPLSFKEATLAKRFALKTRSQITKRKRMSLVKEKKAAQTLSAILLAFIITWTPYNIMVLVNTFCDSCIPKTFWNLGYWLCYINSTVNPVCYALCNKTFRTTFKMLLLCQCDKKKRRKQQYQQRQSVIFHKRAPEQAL
# Protocol: as §1, §2
# [6] = Photoabsorption 290-700 nm, molar extinction coefficient (photoliability); assay type: physicochemical; conditions: wavelength of maximal absorption between 290 nm and 700 nm
# [7] = target: 5-HT2A (Homo sapiens, UniProt P28223); assay: IP-One HTRF IP-1 accumulation functional assay, 5-HT2A-expressing HEK293; assay type: cell-based; design: host or cells: HEK293
# 5-HT2A, sequence (P28223 whole entry, looked up): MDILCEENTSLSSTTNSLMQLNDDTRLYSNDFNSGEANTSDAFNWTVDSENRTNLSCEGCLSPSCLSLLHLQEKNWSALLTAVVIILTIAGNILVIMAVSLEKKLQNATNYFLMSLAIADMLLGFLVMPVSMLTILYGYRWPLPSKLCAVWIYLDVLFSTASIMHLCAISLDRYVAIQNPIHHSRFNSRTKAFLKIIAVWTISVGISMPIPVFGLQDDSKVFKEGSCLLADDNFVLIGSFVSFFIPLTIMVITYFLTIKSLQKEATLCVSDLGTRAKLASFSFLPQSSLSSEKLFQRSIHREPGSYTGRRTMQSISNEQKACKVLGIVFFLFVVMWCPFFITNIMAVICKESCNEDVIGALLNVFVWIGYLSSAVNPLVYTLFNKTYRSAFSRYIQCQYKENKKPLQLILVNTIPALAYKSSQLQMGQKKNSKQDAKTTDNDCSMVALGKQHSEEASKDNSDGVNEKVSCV
# Protocol: Methods (5-HT2A and 5-HT2C IP-One Functional Activity Assays): Intracellular accumulation of IP-1 was measured using an IP-One HTRF assay kit (Cat. #62IPAPEJ, Cisbio) at WuXi AppTec Co. Ltd. (Hong Kong) Discovery Biology Unit according to their standard protocols. Briefly, the reference compounds and screening compounds were 3.16-fold serially diluted in 100% DMSO for 10 points using Bravo. 70 nL of compounds were added to the assay plate using Echo555. Added 14 μL/7500 cells/well of 5-HT2A-expressing HEK293 or 5-HT2C-expressing HEK293 to the assay plate and incubate for 60 min at 37° C. Added 3 μL of IP-1 d2 Reagent working solution and 3 μL of IP-1 Tb Cryptate Antibody working solution to all wells. The plates were incubated for 1 hour at room temperature and read for fluorescence at 620 nm and 665 nm on an EnVision Multimode Plate Reader (PerkinElmer). The ratio of the acceptor and donor emission signals (665/620) were calculated for each individual well and substituted into the standard curve to obtain the log concentration of IP level. After converting to the antilog base IP-1, the average background control signal was subtracted from each well and values were normalized to the maximal response of 5-HT at 3 μM (100%). % MAX was calculated by taking the average normalized maximal response for each compound at the highest concentration tested. The data were analyzed using the four-parameter nonlinear regression curve-fitting function in GraphPad Prism 5 (GraphPad Software, San Diego, CA) to generate potency (EC50) values. The represented plots show normalized IP-1 values versus compound concentrations; the corresponding numerical data are parameter estimates for the concentration-response curve using the four-parameter nonlinear regression curve-fitting function in GraphPad Prism 10.
# T1 sequence (P08588 whole entry): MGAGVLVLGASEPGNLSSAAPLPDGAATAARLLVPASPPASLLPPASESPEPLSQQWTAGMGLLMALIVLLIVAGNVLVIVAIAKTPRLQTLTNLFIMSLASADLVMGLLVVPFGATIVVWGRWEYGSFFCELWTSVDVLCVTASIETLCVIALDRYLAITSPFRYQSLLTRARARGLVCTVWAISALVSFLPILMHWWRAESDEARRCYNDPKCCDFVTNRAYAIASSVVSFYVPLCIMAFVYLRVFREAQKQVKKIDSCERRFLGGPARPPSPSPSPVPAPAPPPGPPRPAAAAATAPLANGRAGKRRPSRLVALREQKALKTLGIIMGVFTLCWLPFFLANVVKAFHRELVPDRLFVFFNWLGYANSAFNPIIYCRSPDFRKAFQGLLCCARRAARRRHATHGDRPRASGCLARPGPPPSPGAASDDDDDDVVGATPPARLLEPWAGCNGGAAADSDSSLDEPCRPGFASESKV
SMILES,Mean Percent Inhibition of Control Specific Binding [1] [%],Mean Percent Inhibition of Control Specific Binding [2] [%],Mean Percent Inhibition of Control Specific Binding [3] [%],Mean Percent Inhibition of Control Specific Binding [4] [%],Mean Percent Inhibition of Control Specific Binding [5] [%],MEC [6] [L/mol/cm],EC50 [7] [nM]
"COCc1cc(CCN)c(O)cc1CC(C)C [2CiBu-2OH-5MM, 2-(2-aminoethyl)-5-isobutyl-4-(methoxymethyl)phenol]",84.5,8.4,35.1,11.8,10.6,380.8,
"COCCc1cc(CCN)c(OC)cc1Br [Compound 2CB-5ME, reference compound]",26.2,0.2,−4.6,10.0,47.9,,227
"COCc1cc(CCN)c(OC)cc1Br [Compound 2CB-5MM, 2-(4-bromo-2-methoxy-5-(methoxymethyl)phenyl)ethan-1-amine]",19,2.7,14.5,9.5,29.2,781.9,59.1
"COCc1cc(CCN)c(OC)cc1CC(C)C [Compound 2CiBu-5MM, 2-[4-isobutyl-2-methoxy-5-(methoxymethyl)phenyl]ethanamine]",36.0,−4.6,8.2,0.5,31.8,283.6,341
